Data from paper PMC6255974 (Frontiers in Pharmacology, 2018).
Where a name gives a salt, the structure may show the parent alone.

Legend:
[1] = biological target: T1, human adult muscle nicotinic acetylcholine receptor αβεδ (Homo sapiens, UniProt P02708+P11230+Q04844+Q07001); assay: ACh-evoked currents at adult muscle nAChR in Xenopus oocytes, two-electrode voltage clamp; format: cell-based; details: read-out: IC50 of block of ACh-evoked currents
T1 construct: expressed in transfected cells; host or cells: Xenopus laevis oocytes injected with cRNA (cDNAs in pRBG4, gifts of A. G. Engel and F. Grassi)
T1 sequence (P02708 21-457): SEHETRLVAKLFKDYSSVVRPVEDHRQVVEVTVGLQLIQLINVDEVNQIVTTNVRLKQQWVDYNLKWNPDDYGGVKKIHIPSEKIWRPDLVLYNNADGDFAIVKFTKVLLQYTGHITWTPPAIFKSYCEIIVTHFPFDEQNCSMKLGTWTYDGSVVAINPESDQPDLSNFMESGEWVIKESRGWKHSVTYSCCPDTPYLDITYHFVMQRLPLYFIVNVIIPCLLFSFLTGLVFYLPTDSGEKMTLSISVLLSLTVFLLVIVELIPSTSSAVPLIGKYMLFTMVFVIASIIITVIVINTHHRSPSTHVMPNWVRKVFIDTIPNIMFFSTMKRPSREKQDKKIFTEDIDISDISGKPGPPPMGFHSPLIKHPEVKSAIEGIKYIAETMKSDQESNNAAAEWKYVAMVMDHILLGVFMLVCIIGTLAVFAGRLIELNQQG
T1 sequence (P11230 24-501): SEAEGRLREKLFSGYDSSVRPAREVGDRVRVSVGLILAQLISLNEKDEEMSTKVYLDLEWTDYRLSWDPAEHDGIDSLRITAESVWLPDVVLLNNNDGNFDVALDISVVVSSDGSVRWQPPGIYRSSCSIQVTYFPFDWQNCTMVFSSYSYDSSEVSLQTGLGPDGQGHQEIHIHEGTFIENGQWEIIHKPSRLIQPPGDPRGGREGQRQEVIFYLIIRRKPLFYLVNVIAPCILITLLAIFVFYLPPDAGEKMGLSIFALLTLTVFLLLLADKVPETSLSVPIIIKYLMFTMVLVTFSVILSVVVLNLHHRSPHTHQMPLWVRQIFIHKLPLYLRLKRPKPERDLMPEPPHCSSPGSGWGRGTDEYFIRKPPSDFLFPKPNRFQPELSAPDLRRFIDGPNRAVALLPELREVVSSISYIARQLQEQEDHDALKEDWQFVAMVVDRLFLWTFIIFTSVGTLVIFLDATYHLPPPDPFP
T1 sequence (Q07001 22-517): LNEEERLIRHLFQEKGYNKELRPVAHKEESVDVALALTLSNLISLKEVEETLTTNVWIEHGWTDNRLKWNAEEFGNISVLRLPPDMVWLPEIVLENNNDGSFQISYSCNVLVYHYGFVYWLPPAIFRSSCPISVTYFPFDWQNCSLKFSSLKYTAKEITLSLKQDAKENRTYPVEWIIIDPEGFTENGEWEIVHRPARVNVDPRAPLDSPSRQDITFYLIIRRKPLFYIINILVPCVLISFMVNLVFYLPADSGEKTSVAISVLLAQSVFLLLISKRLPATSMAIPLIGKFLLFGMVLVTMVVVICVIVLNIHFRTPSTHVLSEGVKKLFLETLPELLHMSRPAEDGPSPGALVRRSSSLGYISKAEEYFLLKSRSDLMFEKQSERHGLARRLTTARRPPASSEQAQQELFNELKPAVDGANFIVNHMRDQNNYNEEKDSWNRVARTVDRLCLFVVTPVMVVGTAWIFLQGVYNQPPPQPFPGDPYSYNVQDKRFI
T1 sequence (Q04844 21-493): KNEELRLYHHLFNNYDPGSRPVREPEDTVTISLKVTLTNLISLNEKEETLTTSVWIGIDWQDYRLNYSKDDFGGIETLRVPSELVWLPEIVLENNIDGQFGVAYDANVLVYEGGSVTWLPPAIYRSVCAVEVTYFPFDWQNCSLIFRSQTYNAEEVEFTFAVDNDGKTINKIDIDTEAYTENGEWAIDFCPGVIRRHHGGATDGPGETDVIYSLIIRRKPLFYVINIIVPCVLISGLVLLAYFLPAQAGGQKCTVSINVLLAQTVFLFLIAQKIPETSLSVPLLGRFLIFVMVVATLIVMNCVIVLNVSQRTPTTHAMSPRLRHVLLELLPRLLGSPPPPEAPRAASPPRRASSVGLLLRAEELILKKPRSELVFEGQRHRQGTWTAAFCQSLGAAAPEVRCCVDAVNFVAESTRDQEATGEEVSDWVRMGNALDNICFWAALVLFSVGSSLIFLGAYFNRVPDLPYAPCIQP
From the text: The deviations are represented by the standard error of the mean (SEM).

[2] = parameters: method as in Dieterich et al., 1984; details: humans; oral 2 × 260 mg quinine sulfate; ref Dieterich et al., 1984; cited from earlier work
[3] = biological target: human heteromeric 5HT3AB-receptors; parameters: method as in Thompson and Lummis, 2008; details: ref Thompson and Lummis, 2008; cited from earlier work
[4] = test system: recombinant muscle receptor expressed in HEK293 cells; details: concentrations up to 30 μM; ref Sieb et al., 1996; cited from earlier work
[5] = biological target: human homomeric 5HT3A-receptors; parameters: method as in Thompson and Lummis, 2008; details: ref Thompson and Lummis, 2008; cited from earlier work
human GABA(A)-receptors = biological target: human GABA(A)-receptors; parameters: method as in Thompson and Lummis, 2008; details: ref Thompson and Lummis, 2008; cited from earlier work
[6] = test system: neuronal rat α9α10 nAChRs; parameters: method as in Ballestero et al., 2005; details: ref Ballestero et al., 2005; cited from earlier work

## CCN(CC)CCCC(C)Nc1ccnc2cc(Cl)ccc12 (stereo not shown) [chloroquine]
[1]
  IC50: 2.22 µM

## C=C[C@H]1C[N@@]2CC[C@H]1C[C@H]2[C@H](O)c1ccnc2ccc(OC)cc12 [quinine sulfate]
[2]
  Time of peak plasma concentration after intake: about 2 h

## C=C[C@H]1C[N@@]2CC[C@H]1C[C@H]2[C@H](O)c1ccnc2ccc(OC)cc12 [quinine]
[3]
  IC50: ~16 µM
[4]
  Inhibition of the binding of α-bungarotoxin: could not inhibit
[5]
  IC50: ~1 µM
Human GABA(A)-receptors
  IC50: ~1600 µM
[6]
  IC50: ~1 µM
